Where two headings read alike, the source gives them in different places.
What was measured:
[1] = system: P. falciparum African D6 clone; assay: microbe, parasite or virus in culture; format: cell-based; settings: Plasmodium falciparum, D6, read-out: Antimalarial activity IC50, D6
recombinant BoNT/A LC [2] = target: T1, recombinant BoNT/A LC (Clostridium botulinum, UniProt P0DPI0); settings: cited from earlier work
[3] = system: P. falciparum multidrug resistant C235 strain (Thailand); assay: microbe, parasite or virus in culture; format: cell-based
[4] = system: P. falciparum Indochina W2 clone; assay: microbe, parasite or virus in culture; format: cell-based
recombinant BoNT/A LC [5] = target: T1, recombinant BoNT/A LC; format: biochemical, Closteridium botulinum
EBOV = settings: cited from earlier work
P. berghei (P Line) = settings: mouse
[6] = system: Recombinant Zaire Ebola virus (EBOV-eGFP); assay: microbe, parasite or virus in culture; format: cell-based; settings: read-out: EBOV inhibition IC50
Vero76 cells = settings: African green monkey
[7] = system: P. berghei (ANKA strain) sporozoites; design: species or system ICR mice (Mus musculus); settings: mouse, in vivo
[8] = system: RAW 264.7 (rat macrophage) cell line; format: cell-based

T1 sequence (P0DPI0 2-448 limits assumed): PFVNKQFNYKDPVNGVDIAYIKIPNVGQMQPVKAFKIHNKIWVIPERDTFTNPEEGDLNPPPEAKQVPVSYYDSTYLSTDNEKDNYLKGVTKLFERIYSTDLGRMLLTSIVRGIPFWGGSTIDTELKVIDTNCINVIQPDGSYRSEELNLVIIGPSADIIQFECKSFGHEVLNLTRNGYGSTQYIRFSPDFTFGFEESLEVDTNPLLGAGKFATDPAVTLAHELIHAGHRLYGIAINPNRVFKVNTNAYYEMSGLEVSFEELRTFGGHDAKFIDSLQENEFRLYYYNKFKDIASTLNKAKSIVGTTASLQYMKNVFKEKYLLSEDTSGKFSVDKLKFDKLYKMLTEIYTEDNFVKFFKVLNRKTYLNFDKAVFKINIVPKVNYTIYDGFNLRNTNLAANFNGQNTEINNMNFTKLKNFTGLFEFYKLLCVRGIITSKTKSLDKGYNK

| Structure (SMILES) | Toxicity at 20 µM (Vero76 cells) [%] | cell toxicities in dose-response studies (Vero76 cells) [%] | Selectivity index (IC50) D6 [8] | Selectivity index (IC50) W2 [8] | Selectivity index (IC90) C235 [8] | Selectivity index (IC90) D6 [8] | Selectivity index (IC90) W2 [8] | Resistance index (RI) W2/D6 [4] | other results |
| --- | --- | --- | --- | --- | --- | --- | --- | --- | --- |
| CCN(CC)CCCC(C)Nc1ccnc2cc(Cl)ccc12 (stereo not drawn) [CQ, chloroquine, reference compound] | – | – | – | – | – | – | – | – | IC50 [1]: 0.0123 µM; BoNT/A LC inhibition (recombinant BoNT/A LC [2]): weakly inhibit the BoNT/A LC; IC50 ([3]; Plasmodium falciparum, read-out: Antimalarial activity IC50, C235): 0.139 µM; IC50 ([4]; Plasmodium falciparum, W2, read-out: Antimalarial activity IC50, W2): 0.456 µM |
| Cc1cc(NCCCN)c2ccc3c(ccc4c(NCCCN)cc(C)nc43)c2n1.Cl [Compound 7, N,N'-bis(3-aminopropyl)-3,9-dimethylquino[8,7-h]quinoline-1,7-diamine tetrahydrochloride] | – | – | – | – | – | – | – | – | type of inhibition kinetics (recombinant BoNT/A LC [5]): competitive inhibitors |
| Cc1cc(NCCN)c2ccc3c(ccc4c(NCCN)cc(C)nc43)c2n1.Cl [Compound 8, N,N'-bis(2-aminoethyl)-3,9-dimethylquino[8,7-h]quinoline-1,7-diamine tetrahydrochloride] | – | – | – | – | – | – | – | – | type of inhibition kinetics (recombinant BoNT/A LC [5]): competitive inhibitors |
| Cc1cc(NCCCN(C)C)c2ccc3c(ccc4c(NCCCN(C)C)cc(C)nc43)c2n1.Cl [Compound 9, N,N'-bis[3-(dimethylamino)propyl]-3,9-dimethylquino[8,7-h]quinoline-1,7-diamine tetrahydrochloride] | – | – | – | – | – | – | – | – | anti-EBOV efficacy in vivo (EBOV): possesses anti-EBOV efficacy in vivo with no toxicity |
| CCN(CC)CCNc1cc(C)nc2c1ccc1c2ccc2c(NCCN(CC)CC)cc(C)nc21.Cl [Compound 11, N,N'-bis[2-(diethylamino)ethyl]-3,9-dimethylquino[8,7-h]quinoline-1,7-diamine tetrahydrochloride] | <20 | < 25 | 1555.41; 1189.46 | 2686.21; 1058.99 | 281.66; 2827.70 | 1555.41; 1189.46 | 2686.21; 1058.99 | 0.57/0.55 | toxicity in vivo (P. berghei (P Line); ICR, po): >60; >60; no toxicity in vivo; in vivo clinical toxicity (P. berghei (P Line)): No evidence of in vivo clinical toxicity; day of succumbing to infection (post-parasite inoculation), non-cured mice (P. berghei (P Line); in vivo): 13 to 21 days; mice cured (negative blood smear on day 31 post-infection) (P. berghei (P Line); in vivo): cured one mouse out of five tested; IC50 [6]: 5 to 10 µM; delay of parasite patency relative to control mice [7]: 1 to 2 days; delayed patency [7]: 1 days; causal prophylactic protection ([7]; po): does not provide prophylactic protection; Resistance index (RI) C235/D6 [3]: 0.57/0.55 |
| Cc1cc(NCCCN2CCCCC2)c2ccc3c(ccc4c(NCCCN5CCCCC5)cc(C)nc43)c2n1.Cl [Compound 14, 3,9-dimethyl-N,N'-bis(3-piperidin-1-ylpropyl)quino[8,7-h]quinoline-1,7-diamine tetrahydrochloride] | <20 | < 25 | – | – | – | – | – | – | – |
| Cc1cc(NCCCN2CCOCC2)c2ccc3c(ccc4c(NCCCN5CCOCC5)cc(C)nc43)c2n1.Cl [Compound 16, 3,9-dimethyl-N,N'-bis(3-morpholin-4-ylpropyl)quino[8,7-h]quinoline-1,7-diamine tetrahydrochloride] | <20 | < 25 | 1430.40; 1302.12 | 3740.50; 1728.68 | 929.32; 635.31 | 1430.40; 1302.12 | 3740.50; 1728.68 | 0.38/1.54 | IC50 ([6]; Zaire ebolavirus, Vero 76, 48 h): ~5 µM; IC50 [6]: 2.5 to 5 µM; Selectivity index (IC50) C235 [8]: 929.32; 635.31 |
| Cc1cc(NCCN2CCOCC2)c2ccc3c(ccc4c(NCCN5CCOCC5)cc(C)nc43)c2n1.Cl [Compound 17, 3,9-dimethyl-N,N'-bis(2-morpholin-4-ylethyl)quino[8,7-h]quinoline-1,7-diamine tetrahydrochloride] | – | – | 1715.68; 2374.36 | 1662.42; 2601.48 | 1033.94; 1815.35 | 1715.68; 2374.36 | 1662.42; 2601.48 | 1.03/1.66 | Resistance index (RI) C235/D6 [3]: 1.03/1.66; Selectivity index (IC50) C235 [8]: 1033.94; 1815.35 |

From PMC3056319 (Journal of medicinal chemistry, 2011)
